The record followed here is paper PMC5074465, “Duloxetine Inhibits Microglial P2X4 Receptor Function and Alleviates Neuropathic Pain after Peripheral Nerve Injury” (PLoS ONE, 2016).

For one assay, the target named is T1, rat P2X4R (rP2X4R) (Rattus norvegicus, UniProt P51577).
T1 construct: gene P2rx4; rP2X4R stably expressed in 1321N1 cells
T1 sequence (P51577 1-388): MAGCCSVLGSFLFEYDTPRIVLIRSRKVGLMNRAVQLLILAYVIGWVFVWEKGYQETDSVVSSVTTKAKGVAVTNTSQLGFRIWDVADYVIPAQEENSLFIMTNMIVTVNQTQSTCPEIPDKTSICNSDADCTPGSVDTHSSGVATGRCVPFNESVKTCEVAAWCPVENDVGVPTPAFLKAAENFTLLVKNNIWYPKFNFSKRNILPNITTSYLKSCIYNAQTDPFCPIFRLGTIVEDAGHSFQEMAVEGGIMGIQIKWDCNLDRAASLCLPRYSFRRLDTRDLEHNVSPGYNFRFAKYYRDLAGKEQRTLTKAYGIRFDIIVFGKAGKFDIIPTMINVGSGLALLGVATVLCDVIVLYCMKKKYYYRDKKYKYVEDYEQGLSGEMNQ
In words: Fura-2 Ca2+ assay (FDSS […]EX), inhibition of […] ATP response, […] duloxetine. It counts as cell-based.

The target of assay [1] is T2, human P2X4R (P2X4 receptor) (Homo sapiens, UniProt Q99571).
T2 construct: gene P2RX4
T2 sequence (Q99571 1-388): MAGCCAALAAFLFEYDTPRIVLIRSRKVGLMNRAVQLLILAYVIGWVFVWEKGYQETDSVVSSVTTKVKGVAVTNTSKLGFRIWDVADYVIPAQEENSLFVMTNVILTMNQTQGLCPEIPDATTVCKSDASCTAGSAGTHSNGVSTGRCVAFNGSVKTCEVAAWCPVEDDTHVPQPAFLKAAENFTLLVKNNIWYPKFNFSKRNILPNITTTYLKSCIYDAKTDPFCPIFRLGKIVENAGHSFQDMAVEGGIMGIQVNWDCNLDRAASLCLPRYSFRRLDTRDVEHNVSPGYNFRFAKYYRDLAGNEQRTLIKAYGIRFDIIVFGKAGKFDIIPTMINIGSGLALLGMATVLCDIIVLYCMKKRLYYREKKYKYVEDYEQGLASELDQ
In words: cell-based.

In general, IC50 refers to the concentration that inhibits the measured activity by half. A higher IC50 goes with lower potency.

With `CNCC[C@H](Oc1cccc2ccccc12)c1cccs1` [duloxetine], the “Fura-2 Ca2+ assay (FDSS 7000EX), inhibition of 10 μM ATP response, 3-30 μM dulox” value on rat P2X4R (rP2X4R) is recorded as “The inhibitory effect of duloxetine was concentration dependent in rP2X4R-1321N1 cells (Fig 1A)”. Moreover, half-maximal inhibition in assay [1] (IC50) was put at 1590 nM.
